Laboratory results published in PubChem BioAssay (NCI).
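Test compounds were applied to cells in 96-well plates for 48 hours at 5 doses. GI50: concentration for 50% inhibition of growth. TGI: total growth inhibition.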

How the values were obtained:
Assay in all cases: NCI-60 cell line screen, 48 h
786-0 renal = test system: 786-0 renal
A498 renal = test system: A498 renal
A549 NSCLC = test system: A549 NSCLC
ACHN renal = test system: ACHN renal
BT-549 breast = test system: BT-549 breast
CAKI-1 renal = test system: CAKI-1 renal
CCRF-CEM leukemia = test system: CCRF-CEM leukemia
COLO 205 colon = test system: COLO 205 colon
DU-145 prostate = test system: DU-145 prostate
EKVX NSCLC = test system: EKVX NSCLC
HCC-2998 colon = test system: HCC-2998 colon
HCT-116 colon = test system: HCT-116 colon
HCT-15 colon = test system: HCT-15 colon
HL-60(TB) leukemia = test system: HL-60(TB) leukemia
HOP-62 NSCLC = test system: HOP-62 NSCLC
HOP-92 NSCLC = test system: HOP-92 NSCLC
HS 578T breast = test system: HS 578T breast
HT29 colon = test system: HT29 colon
IGROV1 ovarian = test system: IGROV1 ovarian
K-562 leukemia = test system: K-562 leukemia
KM12 colon = test system: KM12 colon
LOX IMVI melanoma = test system: LOX IMVI melanoma
M14 melanoma = test system: M14 melanoma
MALME-3M melanoma = test system: MALME-3M melanoma
MCF7 breast = test system: MCF7 breast
MDA-MB-231 breast = test system: MDA-MB-231 breast
MDA-MB-435 = test system: MDA-MB-435
MDA-N = test system: MDA-N
MOLT-4 leukemia = test system: MOLT-4 leukemia
NCI-H226 lung = test system: NCI-H226 lung
NCI-H23 lung = test system: NCI-H23 lung
NCI-H460 lung = test system: NCI-H460 lung
NCI-H522 lung = test system: NCI-H522 lung
NCI/ADR-RES ovarian = test system: NCI/ADR-RES ovarian
OVCAR-3 ovarian = test system: OVCAR-3 ovarian
OVCAR-4 ovarian = test system: OVCAR-4 ovarian
OVCAR-5 ovarian = test system: OVCAR-5 ovarian
OVCAR-8 ovarian = test system: OVCAR-8 ovarian
PC-3 prostate = test system: PC-3 prostate
RPMI-8226 leukemia = test system: RPMI-8226 leukemia
RXF 393 renal = test system: RXF 393 renal
SF-268 CNS = test system: SF-268 CNS
SF-295 CNS = test system: SF-295 CNS
SF-539 CNS = test system: SF-539 CNS
SK-MEL-2 melanoma = test system: SK-MEL-2 melanoma
SK-MEL-28 melanoma = test system: SK-MEL-28 melanoma
SK-MEL-5 melanoma = test system: SK-MEL-5 melanoma
SK-OV-3 ovarian = test system: SK-OV-3 ovarian
SN12C renal = test system: SN12C renal
SNB-19 CNS = test system: SNB-19 CNS
SNB-75 CNS = test system: SNB-75 CNS
SR leukemia = test system: SR leukemia
SW-620 colon = test system: SW-620 colon
T-47D breast = test system: T-47D breast
TK-10 renal = test system: TK-10 renal
U251 CNS = test system: U251 CNS
UACC-257 melanoma = test system: UACC-257 melanoma
UACC-62 melanoma = test system: UACC-62 melanoma
UO-31 renal = test system: UO-31 renal
DLD-1 colon = test system: DLD-1 colon
DMS 273 small cell lung = test system: DMS 273 small cell lung
HOP-18 NSCLC = test system: HOP-18 NSCLC
KM20L2 colon = test system: KM20L2 colon
LXFL 529 NSCLC = test system: LXFL 529 NSCLC
M19-MEL melanoma = test system: M19-MEL melanoma
SNB-78 CNS = test system: SNB-78 CNS

## CSc1nnc(SCc2nn3c(=O)cc(C)nc3s2)s1
786-0 renal
  TGI: > 100 µM
A498 renal
  TGI: > 100 µM
A549 NSCLC
  TGI: > 100 µM
ACHN renal
  TGI: > 100 µM
BT-549 breast
  TGI: > 100 µM
CAKI-1 renal
  TGI: > 100 µM
CCRF-CEM leukemia
  TGI: > 100 µM
COLO 205 colon
  TGI: > 100 µM
DU-145 prostate
  TGI: > 100 µM
EKVX NSCLC
  TGI: > 100 µM
HCC-2998 colon
  TGI: > 100 µM
HCT-116 colon
  TGI: > 100 µM
HCT-15 colon
  TGI: > 100 µM
HL-60(TB) leukemia
  TGI: > 100 µM
HOP-62 NSCLC
  TGI: > 100 µM
HOP-92 NSCLC
  TGI: > 100 µM
HS 578T breast
  TGI: > 100 µM
HT29 colon
  TGI: > 100 µM
IGROV1 ovarian
  TGI: > 100 µM
K-562 leukemia
  TGI: > 100 µM
KM12 colon
  TGI: > 100 µM
LOX IMVI melanoma
  TGI: > 100 µM
M14 melanoma
  TGI: > 100 µM
MALME-3M melanoma
  TGI: > 100 µM
MCF7 breast
  TGI: > 100 µM
MDA-MB-231 breast
  TGI: > 100 µM
MDA-MB-435
  TGI: > 100 µM
MDA-N
  TGI: > 100 µM
MOLT-4 leukemia
  TGI: > 100 µM
NCI-H226 lung
  TGI: > 100 µM
NCI-H23 lung
  TGI: > 100 µM
NCI-H460 lung
  TGI: > 100 µM
NCI-H522 lung
  TGI: > 100 µM
NCI/ADR-RES ovarian
  TGI: > 100 µM
OVCAR-3 ovarian
  TGI: > 100 µM
OVCAR-4 ovarian
  TGI: > 100 µM
OVCAR-5 ovarian
  TGI: > 100 µM
OVCAR-8 ovarian
  TGI: > 100 µM
PC-3 prostate
  TGI: > 100 µM
RPMI-8226 leukemia
  TGI: > 100 µM
RXF 393 renal
  TGI: > 100 µM
SF-268 CNS
  TGI: > 100 µM
SF-295 CNS
  TGI: > 100 µM
SF-539 CNS
  TGI: > 100 µM
SK-MEL-2 melanoma
  TGI: > 100 µM
SK-MEL-28 melanoma
  TGI: > 100 µM
SK-MEL-5 melanoma
  TGI: > 100 µM
SK-OV-3 ovarian
  TGI: > 100 µM
SN12C renal
  TGI: > 100 µM
SNB-19 CNS
  TGI: > 100 µM
SNB-75 CNS
  TGI: > 100 µM
SR leukemia
  TGI: > 100 µM
SW-620 colon
  TGI: > 100 µM
T-47D breast
  TGI: > 100 µM
TK-10 renal
  TGI: > 100 µM
U251 CNS
  TGI: > 100 µM
UACC-257 melanoma
  TGI: > 100 µM
UACC-62 melanoma
  TGI: > 100 µM
UO-31 renal
  TGI: > 100 µM

## CCC(C)(O)c1cn(-c2ccc(Cl)cc2)nn1 (stereo not given)
786-0 renal
  TGI: > 100 µM
A498 renal
  TGI: > 100 µM
A549 NSCLC
  TGI: > 100 µM
ACHN renal
  TGI: > 100 µM
CAKI-1 renal
  TGI: > 100 µM
CCRF-CEM leukemia
  TGI: > 100 µM
COLO 205 colon
  TGI: > 100 µM
DLD-1 colon
  TGI: > 100 µM
DMS 273 small cell lung
  TGI: > 100 µM
EKVX NSCLC
  TGI: > 100 µM
HCC-2998 colon
  TGI: > 100 µM
HCT-116 colon
  TGI: > 100 µM
HCT-15 colon
  TGI: > 100 µM
HL-60(TB) leukemia
  TGI: > 100 µM
HOP-18 NSCLC
  TGI: > 100 µM
HOP-62 NSCLC
  TGI: > 100 µM
HOP-92 NSCLC
  TGI: > 100 µM
HT29 colon
  TGI: > 100 µM
IGROV1 ovarian
  TGI: > 100 µM
K-562 leukemia
  TGI: > 100 µM
KM12 colon
  TGI: > 100 µM
KM20L2 colon
  TGI: > 100 µM
LOX IMVI melanoma
  TGI: > 100 µM
LXFL 529 NSCLC
  TGI: > 100 µM
M14 melanoma
  TGI: > 100 µM
M19-MEL melanoma
  TGI: > 100 µM
MALME-3M melanoma
  TGI: > 100 µM
MOLT-4 leukemia
  TGI: > 100 µM
NCI-H226 lung
  TGI: > 100 µM
NCI-H23 lung
  TGI: > 100 µM
NCI-H460 lung
  TGI: > 100 µM
NCI-H522 lung
  TGI: > 100 µM
OVCAR-3 ovarian
  TGI: > 100 µM
OVCAR-4 ovarian
  TGI: > 100 µM
OVCAR-5 ovarian
  TGI: > 100 µM
OVCAR-8 ovarian
  TGI: > 100 µM
RPMI-8226 leukemia
  TGI: > 100 µM
RXF 393 renal
  TGI: > 100 µM
SF-268 CNS
  TGI: > 100 µM
SF-295 CNS
  TGI: > 100 µM
SF-539 CNS
  TGI: > 100 µM
SK-MEL-2 melanoma
  TGI: > 100 µM
SK-MEL-28 melanoma
  TGI: > 100 µM
SK-MEL-5 melanoma
  TGI: > 100 µM
SK-OV-3 ovarian
  TGI: > 100 µM
SN12C renal
  TGI: > 100 µM
SNB-19 CNS
  TGI: > 100 µM
SNB-75 CNS
  TGI: > 100 µM
SNB-78 CNS
  TGI: > 100 µM
SR leukemia
  TGI: > 100 µM
SW-620 colon
  TGI: > 100 µM
TK-10 renal
  TGI: > 100 µM
U251 CNS
  TGI: > 100 µM
UACC-257 melanoma
  TGI: > 100 µM
UACC-62 melanoma
  TGI: > 100 µM
UO-31 renal
  TGI: > 100 µM

## CCCCCCCC(=O)[O-].CCCCCCCC(=O)[O-].N.N.N.N.[Co+3].[O-][Cl+3]([O-])([O-])[O-]
786-0 renal
  GI50: > 100 µM
  TGI: > 100 µM
A549 NSCLC
  GI50: > 100 µM
  TGI: > 100 µM
ACHN renal
  GI50: > 100 µM
  TGI: > 100 µM
CCRF-CEM leukemia
  GI50: > 100 µM
  TGI: > 100 µM
COLO 205 colon
  GI50: > 100 µM
  TGI: > 100 µM
DLD-1 colon
  GI50: > 100 µM
  TGI: > 100 µM
EKVX NSCLC
  GI50: > 100 µM
  TGI: > 100 µM
HCC-2998 colon
  GI50: > 100 µM
  TGI: > 100 µM
HCT-15 colon
  GI50: > 100 µM
  TGI: > 100 µM
HL-60(TB) leukemia
  GI50: > 100 µM
  TGI: > 100 µM
HOP-18 NSCLC
  GI50: 54.8 µM
  TGI: > 100 µM
HOP-92 NSCLC
  GI50: > 100 µM
  TGI: > 100 µM
IGROV1 ovarian
  GI50: 40.3 µM
  TGI: > 100 µM
K-562 leukemia
  GI50: > 100 µM
  TGI: > 100 µM
KM12 colon
  GI50: > 100 µM
  TGI: > 100 µM
M14 melanoma
  GI50: > 100 µM
  TGI: > 100 µM
MALME-3M melanoma
  GI50: > 100 µM
  TGI: > 100 µM
MOLT-4 leukemia
  GI50: > 100 µM
  TGI: > 100 µM
NCI-H226 lung
  GI50: > 100 µM
  TGI: > 100 µM
NCI-H23 lung
  GI50: > 100 µM
  TGI: > 100 µM
OVCAR-5 ovarian
  GI50: > 100 µM
  TGI: > 100 µM
OVCAR-8 ovarian
  GI50: > 100 µM
  TGI: > 100 µM
RPMI-8226 leukemia
  GI50: > 100 µM
  TGI: > 100 µM
RXF 393 renal
  GI50: 74.6 µM
  TGI: > 100 µM
SF-268 CNS
  GI50: 19.1 µM
  TGI: > 100 µM
SF-295 CNS
  GI50: > 100 µM
  TGI: > 100 µM
SF-539 CNS
  GI50: > 100 µM
  TGI: > 100 µM
SK-MEL-2 melanoma
  GI50: > 100 µM
  TGI: > 100 µM
SK-MEL-28 melanoma
  GI50: > 100 µM
  TGI: > 100 µM
SK-OV-3 ovarian
  GI50: > 100 µM
  TGI: > 100 µM
SN12C renal
  GI50: > 100 µM
  TGI: > 100 µM
SNB-19 CNS
  GI50: > 100 µM
  TGI: > 100 µM
SNB-75 CNS
  GI50: > 100 µM
  TGI: > 100 µM
SNB-78 CNS
  GI50: > 100 µM
  TGI: > 100 µM
SR leukemia
  GI50: 69.9 µM
  TGI: > 100 µM
SW-620 colon
  GI50: > 100 µM
  TGI: > 100 µM
TK-10 renal
  GI50: 57.1 µM
  TGI: > 100 µM
UACC-257 melanoma
  GI50: > 100 µM
  TGI: > 100 µM
UACC-62 melanoma
  GI50: > 100 µM
  TGI: > 100 µM
UO-31 renal
  GI50: > 100 µM
  TGI: > 100 µM
